Test [1] concerns the target T1, RORγt ligand-binding domain (RORγt-LBD) (Homo sapiens, UniProt P51449).
T1 construct: 20 nM recombinantly expressed RORγ-LBD fused to GST
T1 sequence (P51449 269-508 limits assumed): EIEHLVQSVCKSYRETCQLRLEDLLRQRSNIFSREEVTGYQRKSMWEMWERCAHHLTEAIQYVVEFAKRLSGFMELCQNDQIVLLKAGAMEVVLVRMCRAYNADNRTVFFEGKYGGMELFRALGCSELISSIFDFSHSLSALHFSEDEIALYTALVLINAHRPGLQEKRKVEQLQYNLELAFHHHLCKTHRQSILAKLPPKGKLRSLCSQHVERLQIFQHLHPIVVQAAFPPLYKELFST
Description: Time-resolved FRET (TR-FRET) RORγt coactivator assay (RIP140 peptide displacement). It counts as biochemical. Conditions: ligand-dependent coactivator-RORγt binding. The source says:
Time-resolved FRET (TR-FRET) RORγt coactivator assay was used to identify RORγ modulator compounds with ligand-dependent coactivator displacement. The assay uses a d2-labeled anti-GST antibody, synthetic N-terminally biotinylated peptide which is derived from nuclear receptor coactivator protein RIP140, and a RORγt ligand-binding domain (RORγt-LBD) that is tagged with glutathione-S-transferase (GST). The influence of compounds on the RORγ-peptide interaction relies on the binding dependent energy transfer from a donor to an acceptor fluorophor attached to the binding partner of interest. […] For reduction of background from compound fluorescence, TR-FRET method makes use of generic fluorophore labels and time resolved detection.
The assays were done in a final volume of 20 μl in a 384 well plate in a CHAPS buffer (2 mM CHAPS; 1 mM DTT, 2 mM EDTA; 0.1% BSA), containing 20 nM recombinantly expressed RORγ-LBD fused to GST, 30 nM N-terminally biotinylated peptide, 1 nM streptavidin-terbium conjugate and 20 nM d2 labeled-anti-GST. Test compounds were diluted using 10 mM stock solution. The range of the final compound concentrations used in this test was from 0.3 nM to 30 μM (logarithmic scale). DMSO content of the samples was kept at 1%. The assay was equilibrated for 2 hours in the dark at room temperature in 384 well plates (Falcon). The signal was detected by an Ultra384 reader (TECAN). […] Compounds that promote coactivator displacement induce a concentration-dependent decrease in time-resolved fluorescent signal. Data were collected and analyzed using GraphPad Prism software (GraphPad Software V5.02, San Diego Calif. USA). IC50 in μM and E max in % were reported for each compound.
(In general: TR-FRET usually uses a lanthanide donor and a delayed reading to cut background.)

A further test concerns the target T2, human RORγt (Homo sapiens, UniProt P51449).
T2 sequence (P51449 1-497 isoform P51449-2): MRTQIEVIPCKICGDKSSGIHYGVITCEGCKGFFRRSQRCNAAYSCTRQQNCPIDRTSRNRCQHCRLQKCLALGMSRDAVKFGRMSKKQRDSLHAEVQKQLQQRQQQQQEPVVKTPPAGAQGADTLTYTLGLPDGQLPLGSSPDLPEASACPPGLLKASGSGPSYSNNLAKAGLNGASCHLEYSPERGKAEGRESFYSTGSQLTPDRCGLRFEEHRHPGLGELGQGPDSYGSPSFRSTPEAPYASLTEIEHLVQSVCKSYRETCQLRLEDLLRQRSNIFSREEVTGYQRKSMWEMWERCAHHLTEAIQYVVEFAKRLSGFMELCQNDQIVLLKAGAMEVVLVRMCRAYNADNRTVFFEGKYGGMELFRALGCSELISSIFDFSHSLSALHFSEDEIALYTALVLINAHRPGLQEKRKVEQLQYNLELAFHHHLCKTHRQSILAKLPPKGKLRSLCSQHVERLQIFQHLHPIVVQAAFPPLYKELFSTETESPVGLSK
Description: RORE Luciferase/RORγt transactivation assay (IL-17 promoter luciferase reporter in COS-7 cells). It counts as cell-based. Also noted: V5-His (named only through the vector pcDNA3.1D/V5-His-TOPO); expressed in transfected cells; host or cells: COS-7 (monkey kidney). As to conditions: RORγt activity inhibition, luciferase activity in transfected COS-7 cells, 20 h. The protocol:
It is well known that RORγ binds to a conserved non-coding sequence (CNS) enhancer element in the IL-17 promoter.
Culture medium was changed every 2 days.
The 4.3 Kb human IL-17 promoter containing the RORγ-specific CNS enhancer element was PCR amplified from human genomic DNA and cloned into a pGL3-TKLuc2Cp reporter plasmid.
The luciferase reporter plasmid and the RORγt overexpression plasmid were transfected into COS-7 cell line using 4 μL JetPEI™/μg of DNA. Briefly, 150 ng of DNA (ration 1/2 between RORE-Tk Luc2Cp and cDNA RORγt or the empty vector for the negative control) was served to transfect adherent COS-7 cells in a […] culture flask, in complete medium (see cos-7 cell line culture).
Cells were then detached (using trypsin) and washed by centrifugation at 300 g for 10 minutes. Cell pellet was resuspended in serum free/phenol red free DMEM and seeded in 384 well plates at a density of 10000 cells/well and then incubated for 4 h at 37° C.
Compounds were dissolved in 100% DMSO to obtain 10 mM stock solutions. For each compound, test concentrations were diluted in serum free/phenol red free DMEM using the Genesis Freedom 200™ (TECAN) and added to the cells to obtain a 0.3% DMSO final concentration (in a final volume of 40 μL per well).
The luciferase activity was then measured with 40 μL/well steady-Glo Luciferase assay system (Promega, Madison, Wis.) and after incubation at room temperature for 30 minutes. The luminescence was estimated using the Ultra384 reader (TECAN). Data were collected and analyzed using GraphPad Prism software (GraphPad Software V5.02, San Diego Calif. USA). IC50 in μM and E max in % were reported for each compound.
(In a reporter assay the amount or activity of a reporter protein is the signal.)

Molecules are shown by their SMILES.

Broadly, the IC50 is the concentration that gives 50% inhibition. Take `Cc1ccc(C(NC(=O)Cc2cnc(N3CCOCC3)nc2)c2ccc(C)o2)c(N2CCCCC2)c1` (stereo not shown) [Cpd. 26, N-{[4-methyl-2-(piperidin-1-yl)phenyl](5-methylfuran-2-yl)methyl}-2-[2-(morpholin-4-yl)pyrimidin-5-yl]acetamide]: the IC50 in test [1] was below 1000 nM; on human RORγt, 100 to 1000 nM.

As for `Cc1ccc(C(NC(=O)Cc2ccc(O)c(N3CCS(=O)(=O)CC3)c2)c2ccc(C)o2)c(C)c1` (stereo not shown) [Cpd. 43, N-[(2,4-dimethylphenyl)(5-methylfuran-2-yl)methyl]-2-[3-(1,1-dioxo-1-thiomorpholin-4-yl)-4-hydroxyphenyl]acetamide], the 50% inhibitory concentration (IC50) in test [1] is below 1000 nM; on human RORγt, 1000 to 10000 nM.

For `Cc1ccc(C(NC(=O)C2(c3ccc(N4CCS(=O)(=O)CC4)c(Br)c3)CC2)c2ccc(C)o2)c(N2CCCCC2)c1` (stereo not shown) [Cpd. 37, 1-[3-bromo-4-(1,1-dioxo-1-thiomorpholin-4-yl)phenyl]-N-{[4-methyl-2-(piperidin-1-yl)phenyl](5-methylfuran-2-yl)methyl}cyclopropane-1-carboxamide], the IC50 in test [1] is 100 to 1000 nM; against human RORγt it was below 100 nM.

`COc1cc(CC(=O)NC(c2ccc(C)o2)c2ccc(C)cc2N2CCCCC2)ccc1N1CCS(=O)(=O)CC1` (stereo not shown) [Cpd. 29, 2-[4-(1,1-dioxo-1-thiomorpholin-4-yl)-3-methoxyphenyl]-N-{[4-methyl-2-(piperidin-1-yl)phenyl](5-methylfuran-2-yl)methyl}acetamide]: the IC50 was below 1000 nM in test [1] and 100 to 1000 nM against human RORγt.

Take `Cc1ccc(C(NC(=O)C(C)(C)c2ccc(N3CCS(=O)(=O)CC3)cc2)c2ccc(C)o2)c(C)c1` (stereo not shown) [Cpd. 40, N-[(2,4-dimethylphenyl)(5-methylfuran-2-yl)methyl]-2-[4-(1,1-dioxo-1-thiomorpholin-4-yl)phenyl]-2-methylpropanamide]: the results for the IC50 (in test [1]; on human RORγt) were below 1000 nM and 100 to 1000 nM, respectively.

Regarding `Cc1ccc(C(NC(=O)C2(c3ccc(N4CCS(=O)(=O)CC4)cc3)CCC2)c2ccc(C)o2)c(C)c1` (stereo not shown) [Cpd. 41, N-[(2,4-dimethylphenyl)(5-methylfuran-2-yl)methyl]-1-[4-(1,1-dioxo-1-thiomorpholin-4-yl)phenyl]cyclobutane-1-carboxamide], the IC50 in test [1] is below 1000 nM; at human RORγt it was 100 to 1000 nM.

With `Cc1ccc(C(NC(=O)Cc2cc(N3CCS(=O)(=O)CC3)ccc2F)c2ccccc2)c(N2CCOCC2)c1` (stereo not shown) [Cpd. 4, 2-[5-(1,1-dioxo-1-thiomorpholin-4-yl)-2-fluorophenyl]-N-{[4-methyl-2-(morpholin-4-yl)phenyl](phenyl)methyl}acetamide], the 50% inhibitory concentration (IC50) in test [1] was in the range of 100 to 1000 nM; on human RORγt it was 1000 to 10000 nM.

Take `Cc1ccc(C(NC(=O)Cc2ccc(N3CCS(=O)(=O)CC3)cn2)c2ccc(C)o2)c(N2CCCCC2)c1` (stereo not shown) [Cpd. 47, 2-[5-(1,1-dioxo-1-thiomorpholin-4-yl)pyridin-2-yl]-N-{[4-methyl-2-(piperidin-1-yl)phenyl](5-methylfuran-2-yl)methyl}acetamide]: the IC50 is below 1000 nM in test [1] and below 100 nM on human RORγt.

Take `COc1ccc(C(NC(=O)C2(c3ccc(N4CCS(=O)(=O)CC4)cc3)CC2)c2ccc(C)o2)c(C)c1` (stereo not shown) [Cpd. 44, 1-[4-(1,1-dioxo-1-thiomorpholin-4-yl)phenyl]-N-[(4-methoxy-2-methylphenyl)(5-methylfuran-2-yl)methyl]cyclopropane-1-carboxamide]: the half-maximal inhibitory concentration (IC50) in test [1] is below 1000 nM; against human RORγt, below 100 nM.

For `COc1ccc(CC(=O)NC(c2ccc(C)o2)c2ccc(C)cc2N2CCCCC2)cc1N1CCS(=O)(=O)CC1` (stereo not shown) [Cpd. 30, 2-[3-(1,1-dioxo-1-thiomorpholin-4-yl)-4-methoxyphenyl]-N-{[4-methyl-2-(piperidin-1-yl)phenyl](5-methylfuran-2-yl)methyl}acetamide], the IC50 (in test [1]; against human RORγt) was 100 to 1000 nM each time.

As for `Cc1ccc(C(NC(=O)C(C)(C)c2ccc(N3CCS(=O)(=O)CC3)cc2)c2ccc(C)o2)c(N2CCCCC2)c1` (stereo not shown) [Cpd. 56, 2-[4-(1,1-dioxo-1-thiomorpholin-4-yl)phenyl]-2-methyl-N-{[4-methyl-2-(piperidin-1-yl)phenyl](5-methylfuran-2-yl)methyl}propanamide], the IC50 (in test [1]; against human RORγt) was 100 to 1000 nM each time.

Regarding `Cc1ccc(C(NC(=O)C2(c3ccc(N4CCS(=O)(=O)CC4)cc3)CCC2)c2ccc(C)o2)c(N2CCCCC2)c1` (stereo not shown) [Cpd. 55, 1-[4-(1,1-dioxo-1-thiomorpholin-4-yl)phenyl]-N-{[4-methyl-2-(piperidin-1-yl)phenyl](5-methylfuran-2-yl)methyl}cyclobutane-1-carboxamide], the IC50 (in test [1]; against human RORγt) was 100 to 1000 nM throughout.

Consider `Cc1ccc(C(NC(=O)C2(c3ccc(N4CCS(=O)(=O)CC4)cc3)CC2)c2ccc(C)o2)c(C)c1` (stereo not shown) [Cpd. 64, N-[(2,4-dimethylphenyl)(5-methylfuran-2-yl)methyl]-1-[4-(1,1-dioxo-1-thiomorpholin-4-yl)phenyl]cyclopropane-1-carboxamide], for which the values for the IC50 (in test [1]; against human RORγt) were 1000 to 10000 nM and 100 to 1000 nM, respectively.

As to `Cc1ccc(C(NC(=O)Cc2cnc(N3CCS(=O)(=O)CC3)nc2C)c2ccc(C)o2)c(C)c1` (stereo not shown) [Cpd. 42, N-[(2,4-dimethylphenyl)(5-methylfuran-2-yl)methyl]-2-[2-(1,1-dioxo-1-thiomorpholin-4-yl)-4-methylpyrimidin-5-yl]acetamide], the IC50 (in test [1]; at human RORγt) was 1000 to 10000 nM each time.

Take `Cc1ccc(C(NC(=O)Cc2cnc(N3CCS(=O)(=O)CC3)nc2)c2ccc(C)o2)c(N2CC3CC3C2)c1` (stereo not shown) [Cpd. 36, N-[(2-{3-azabicyclo[3.1.0]hexan-3-yl}-4-methylphenyl)(5-methylfuran-2-yl)methyl]-2-[2-(1,1-dioxo-1-thiomorpholin-4-yl)pyrimidin-5-yl]acetamide]: the figures for the IC50 (in test [1]; on human RORγt) were below 1000 nM and 100 to 1000 nM, respectively.

For the compound `COc1ccc(C(NC(=O)Cc2cnc(N3CCS(=O)(=O)CC3)nc2)c2ccc(C)o2)c(N2CCCCCC2)c1` (stereo not shown) [Cpd. 45, N-{[2-(azepan-1-yl)-4-methoxyphenyl](5-methylfuran-2-yl)methyl}-2-[2-(1,1-dioxo-1-thiomorpholin-4-yl)pyrimidin-5-yl]acetamide], the results for the IC50 (in test [1]; at human RORγt) were below 1000 nM and 100 to 1000 nM, respectively.

Consider `Cc1ccc(C(NC(=O)Cc2cc(N3CCOCC3)ccc2F)c2ccccc2)c(N2CCCCC2)c1` (stereo not shown) [Cpd. 8, 2-[2-fluoro-5-(morpholin-4-yl)phenyl]-N-{[4-methyl-2-(piperidin-1-yl)phenyl](phenyl)methyl}acetamide], for which the half-inhibitory concentration (IC50) lay within 100 to 1000 nM in test [1] and 1000 to 10000 nM at human RORγt.

The record behind these values is patent US11077115B2, “Rorgamma modulators and uses thereof” (Genfit, priority 2017, dated 2021).
